US11333660B2, “Analytical process for predicting the therapeutic effect of BH3 mimetics” (MEDIZINISCHE HOCHSCHULE HANNOVER, priority 2017, dated 2022)

Tests used:
[1] = tested on: human CD45+ cells (BV173) from spleen of ABT-199/DEX/DAS treated mouse; experiment: TMRE FACS on human CD45+ spleen cells from the ABT-199/DEX/DAS treated mouse; assay type: cell-based; conditions: for TMRE fluorescence relative to 100% at beginning: ABT-199/DEX/DAS treated mouse spleen CD45+ cells, ABT-199 10 μM 1 h, FCCP 5 μM 15 min; for TMRE fluorescence / MOMP (FIG. 10): ABT-199/DEX/DAS treated mouse CD45+ cells, 1 μM, 1 h
Experimental: (§1) Cells were concurrently immunologically stained with APC-labelled anti-human CD45 antibody, to discriminate human leukemic from murine cells, and with TMRE. Measurement was by FACS, with gating for live human cells.
(§2) One of these BH3 mimetics was added to a separate aliquot of the cells suspended in cell culture medium to a final concentration of 1 μM. Concurrently, the cells were immunologically stained by adding a APC-labelled anti-human CD45 antibody to identify the tumour cells, and by adding TMRE. After 1 h, cells were analysed by FACS, with the gating set according to side scatter and forward scatter to select for live cells, and to select for CD45+ cells showing TMRE fluorescence.

[2] = tested on: CD19+ lymphoma cells in PBMC of a mantle-cell lymphoma patient; experiment: TMRE FACS on live CD19+ cells of PBMC from a mantle-cell lymphoma patient; assay type: cell-based, human; conditions: 3 h; for % (MeanFL relative to negative control) / MeanFL (mean TMRE fluorescence for the live CD19+ cells): CD19 gate, BH3 mimetics 1000 nM; for effect of inducing MOMP (reduced TMRE fluorescence in CD19+ cells): 1 μM, FIG. 7
Experimental: From a blood sample that was drawn from a patient diagnosed to have mantle-cell lymphoma, PBMC were isolated by density gradient centrifugation and suspended in cell culture medium. No further separation of cells was done but all the PBMC were contained in each aliquot dispensed from the isolated PBMC. […] For measurement, TMRE was added for measuring mitochondrial membrane potential, and for discriminating CD19+ lymphoma cells from normal CD19− cells, anti-CD19 antibody, APC-labelled, was added.
Measurement was by FACS after 3 h incubation under cell culture conditions subsequent to addition of the compounds to the aliquots of the cells.
The FACS results shown in FIG. 7 were taken in one measurement for each aliquot. […] This gating was applied to the measurement of the dye of the anti-CD19 antibody (CD19 APC) as shown in the center column (b, e, h, k, n, q) (R2). The measurement results for the viable lymphoma CD19+ cells in relation to MOMP are shown in the right hand column (c, f, i, l, o, r), with TMRE fluorescence indicating MOMP, i.e. lower TMRE fluorescence indicating increased MOMP.

[3] = tested on: human CD45+ cells (BV173) from spleen of untreated control mouse; experiment: TMRE FACS on human CD45+ spleen cells from the control mouse; assay type: cell-based; conditions: for TMRE fluorescence relative to 100% at beginning: FCCP 5 μM 15 min; for TMRE fluorescence / MOMP (FIG. 10): control mouse CD45+ cells, 1 μM, 1 h
Experimental: as §1
as §2, with “One of these BH3 mimetics was added to a separate aliquot of the cells suspended in cell culture medium to a final concentration of 1 μM.” left out

[4] = tested on: PBMC from a healthy donor; experiment: TMRE FACS on PBMC from a healthy donor; assay type: cell-based, human; conditions: 3 h, ABT-199 1 μM, FCCP 5 μM, mock MFI 232
Experimental: (§3) PBMC were isolated by density gradient centrifugation using Biocoll from the heparinized blood sample of a patient diagnosed to have CLL (ABT-199, Venetoclax, is approved for treatment of CLL with 17p-deletion). As a comparison, PBMC from a healthy donor were isolated. PBMC were suspended in RPMI1640 cell culture medium and transferred as aliquots into separate tubes, to which ABT-199 was added to a final concentration of 1 μM and incubated at 37° C. for 3 h in a 5% CO2 atmosphere. Subsequently, TMRE was added to 50 nM and aliquots were further incubated for 30 min, then analysed by FACS according to the invention. As a negative control (mock), physiological saline was added, as a positive control FCCP to 5 μM (FCCP).

PBMC = experiment: analytical process: TMRE fluorescence by FACS on PBMC aliquots (FIG. 1b); assay type: cell-based
Experimental: In this analysis incubation of PBMC aliquots in cell culture medium with the pharmaceutical compound, negative control or positive control was for 30 min, incubation after subsequent addition of fluorescent dye TMRE was for 10 min, both at 37° C., 5% CO2 atmosphere as cell culture conditions.

PBMC from a CLL patient = experiment: TMRE FACS on PBMC from a CLL patient; assay type: cell-based, human; conditions: 3 h, ABT-199 1 μM, FCCP 5 μM, mock MFI 121
Experimental: as §3

[5] = tested on: in vitro cultivated BV173 cells; experiment: TMRE FACS on in vitro cultivated BV173 cells; assay type: cell-based, human; conditions: in vitro cultured BV173, ABT-199 10 μM 1 h; for TMRE fluorescence relative to 100% at beginning: FCCP 5 μM 15 min
[6] = tested on: blood cells obtained from a CLL patient; conditions: 6 h after contact in vitro; cited from earlier work
SUP-B15 cells = experiment: propidium iodide (PI) staining of SUP-B15 cells; assay type: cell-based; conditions: 1 μM, 24 h process
Experimental: (§4) As a positive control, FCCP was added to one aliquot of the cell suspension to 5 μM final concentration. TMRE fluorescence was measured by FACS after 30 min incubation after addition of TMRE.
For comparison, apoptosis was measured by propidium iodide (PI) staining, the entire process having a duration of 24 h.

[7] = tested on: PBMC or BM mononuclear cells from CML patients in chronic phase; experiment: TMRE FACS on PBMC or BM cells from CML-CP patients; assay type: cell-based, human; conditions: ABT-199 1 μM, 3 h, CML-CP samples (n=7)
Experimental: (§5) PBMC or BM mononuclear cells were isolated by density gradient centrifugation from blood or bone marrow samples originating from patients who were newly diagnosed as ALL (n=12), from blood or bone marrow samples originating from CML patients in chronic phase (CML-CP, n=7), and from blood samples obtained from healthy volunteers (n=6). In accordance with the analytical process, PBMC or BM cells were incubated in cell culture medium with ABT-199 added to 1 μM for 3 h at 37° C. in a 5% CO2 atmosphere for cell culture conditions, followed by addition of TMRE to 50 nM and incubation for another 30 min, then analysed by FACS for fluorescence by TMRE.

[8] = tested on: BCR-ABL negative REH cells; experiment: TMRE FACS measurement of MOMP in REH cells; assay type: cell-based; conditions: ABT-199 10 nM, 3 h
Experimental: As representatives for isolated PBMC, BM or LN mononuclear cells, the B-ALL cell lines SUP-B15, which expresses BCR-ABL (BCR-ABL-positive), and the BCR-ABL negative REH were used in the analytical process in suspension in cell culture medium RPMI1640. As a positive control for MOMP, FCCP was added to 5 μM to one aliquot, as a negative control an aliquot of the suspended cells was used with addition of the same volume of physiological saline, and ABT-199 was added to 10 nM final concentration. After incubation at 37° C. for 3 h, TMRE was added to a final concentration of 50 nM and the aliquots were incubated for further 15 min at 37° C., in a 5% CO2 atmosphere each time.

PBMC from healthy donors = experiment: TMRE FACS on PBMC from healthy volunteers; assay type: cell-based, human; conditions: ABT-199 1 μM, 3 h, healthy donors (n=6)
Experimental: as §5

[9] = tested on: B-ALL cell line SUP-B15 (BCR-ABL-positive); experiment: TMRE FACS measurement of MOMP in SUP-B15 cells; assay type: cell-based; conditions: 3 h
Experimental: As representatives for isolated PBMC, BM or LN mononuclear cells, the B-ALL cell lines SUP-B15, which expresses BCR-ABL (BCR-ABL-positive), and the BCR-ABL negative REH were used in the analytical process in suspension in cell culture medium RPMI1640. […] After incubation at 37° C. for 3 h, TMRE was added to a final concentration of 50 nM and the aliquots were incubated for further 15 min at 37° C., in a 5% CO2 atmosphere each time.
as §4

[10] = tested on: PBMC or BM mononuclear cells from ALL patients; experiment: TMRE FACS on PBMC or BM cells from ALL patients; assay type: cell-based, human; conditions: ABT-199 1 μM, 3 h, ALL samples (n=12)
Experimental: as §5

[11] = CD19+ cells, BH3 mimetics 1 μM, FCCP 5 μM, in comparison to the negative control
[12] = control mouse spleen CD45+ cells, ABT-199 10 μM 1 h

| Compound | TMRE fluorescence relative to 100% at beginning [1] | mean TMRE fluorescence relative to negative control [2, 11] | % (MeanFL relative to negative control) ([2]; FCCP 5 μM) | MeanFL (mean TMRE fluorescence for the live CD19+ cells) ([2]; FCCP 5 μM) | TMRE fluorescence relative to 100% at beginning [3, 12] | MFI (TMRE) [4] | MFI (TMRE) (PBMC from a CLL patient) | TMRE fluorescence relative to 100% at beginning [5] | TMRE fluorescence / MOMP (FIG. 10) [1] | effect of inducing MOMP (reduced TMRE fluorescence in CD19+ cells) [2] | TMRE fluorescence / MOMP (FIG. 10) [3] | further results |
| --- | --- | --- | --- | --- | --- | --- | --- | --- | --- | --- | --- | --- |
| N#CC(C#N)=NNc1ccc(OC(F)(F)F)cc1 [FCCP, carbonyl cyanide-4-(trifluoro-methoxy)phenylhydrazone] | ~20% | 15.6% | 15.6% | 109 | ~20% | 106 | 60 | ~20% |  |  |  | mean fluorescence intensity (MFI) of TMRE (PBMC; incubation 30 min, TMRE 10 min, 37° C., negative control MFI 612): 95 |
| Cc1c(-c2c(-c3ccc(F)o3)sc3ncnc(O[C@H](Cc4ccccc4OCc4ccnn4CC(F)(F)F)C(=O)O)c23)ccc(OCCN2CCN(C)CC2)c1Cl [S63845] |  |  | 56.7% | 396 |  |  |  |  | high TMRE fluorescence | less pronounced effect | high TMRE fluorescence | proportion of cells without MOMP [2, 11]: 56.7% |
| CN1CC[C@H](c2c(O)cc(O)c3c(=O)cc(-c4ccccc4Cl)oc23)[C@H](O)C1 [Flavopiridol] |  |  |  |  |  |  |  |  |  |  |  | mitochondrial membrane depolarization (JC-1) [6]: mitochondrial membrane depolarization was detected |
| CC1(C)CCC(CN2CCN(c3ccc(C(=O)NS(=O)(=O)c4ccc(NCC5CCOCC5)c([N+](=O)[O-])c4)c(Oc4cnc5[nH]ccc5c4)c3)CC2)=C(c2ccc(Cl)cc2)C1 [ABT-199] | no response | 9.3% | 9.3% | 65 | approx. 60% | 242 | 53 | approx. 60% |  | effective in inducing MOMP |  | induction of apoptosis by PI staining (SUP-B15 cells): significant induction of apoptosis; induction of apoptosis (TMRE FACS) [7]: essentially no induction of apoptosis; MFI (TMRE) in comparison to the negative control [8]: essentially remains unaffected; induction of apoptosis (TMRE FACS) (PBMC from healthy donors): essentially no induction of apoptosis; induction of apoptosis by the process of the invention (TMRE) ([9]; 1 μM): significant induction of apoptosis; reduction of MFI (TMRE) ([9]; ABT-199 10 nM, versus negative control): approx. 40%; proportion of cells with MOMP [3, 12]: 40%; FACS peak distribution of TMRE fluorescence (PBMC; ABT-199 5 μM to 10 μM, 30 min incubation): the peak at the position of the positive control increasing with the concentration; proportion of cells with MOMP [5]: 40%; induction of apoptosis (TMRE FACS) [10]: strong induction of apoptosis |
| Cc1c(-c2ccc(N3CCc4cccc(C(=O)Nc5nc6ccccc6s5)c4C3)nc2C(=O)O)cnn1CC12CC3CC(CC(C3)C1)C2 [A1331852] |  | 29.1% | 29.1% | 203 |  |  |  |  | strongly reduced TMRE fluorescence | less pronounced effect | strongly reduced TMRE fluorescence |  |
| CN(C)CC[C@H](CSc1ccccc1)Nc1ccc(S(=O)(=O)NC(=O)c2ccc(N3CCN(Cc4ccccc4-c4ccc(Cl)cc4)CC3)cc2)cc1[N+](=O)[O-] [ABT-737] |  | 9.9% | 9.9% | 69 |  |  |  |  | reduced TMRE fluorescence | effective in inducing MOMP | reduced TMRE fluorescence |  |
